Assay results from patent US10597392B2, “Tetrahydropyridopyrazines as modulators of GPR6” (Takeda Pharmaceutical Corporation Limited, priority 2014, dated 2020).

target: T1, GPR6 receptor expressed in CHO-K1 cells (Homo sapiens, UniProt P46095); assay: Inhibition of cAMP Activity of GPR6 In Vitro Assay; format: cell-based; conditions: inhibition of constitutive cAMP activity of GPR6 in CHO-K1 cells, 45 min incubation, HTRF cAMP detection
T1 construct: expressed in transfected cells
Protocol: Inhibition of cAMP Activity of GPR6 In Vitro Assay
This cell based assay measures the ability of compounds to inhibit the constitutive cAMP activity of GPR6 receptor expressed in CHO-K1 cells. CHO cells were stably expressed with GPR6 receptor, whose expression is controlled by a tetracycline inducable element. The cells were cultured in medium containing F12K, 10% FBS, 1% Penn/Strep, 200 ug/mL Hygromycin. GPR6 receptor expression was induced for 20 hrs with 2 µg/ml doxycycline (sigma D9891) in growth media. After addition of doxycycline cells were plated at a density of 450-750 cells per well in 96-well half-volume black tissue culture plates (Costar) and placed in an incubator (37°, 5% CO2) for 20 hours prior to cAMP assays.
Culture media was removed from cells and they were washed with 50 µL/well of Ringer's Buffer (MgCl2 0.047 mg/mL, NaH2PO4 0.18 mg/mL, Na2HPO4 0.1 mg/mL, KCl 0.34 mg/mL, NaHCO3 1.26 mg/mL, D-glucose 1.8 mg/mL, NaCl 7 mg/mL; pH=7.4). Compounds suspended in DMSO were diluted in Ringer's Buffer containing 0.5% fatty acid free BSA plus 300 μM IBMX and incubated on cells for 45 min at 37° and 5% CO2. After incubation cells were incubated for 10 min at room temp with Eu-cAMP tracer solution from a Perkin Elmer Lance HTRF Ultra cAMP assay kit (TRF0263). Then ULight™-anti-cAMP solution from the Lance HTRF kit was added and incubated on a shaker at room temp for 1 hour prior to HTRF detection in a Perkin Elmer Envision plate reader.
IC50 curves were generated with a four-parameter logistic equation using GraphPad Prism 5.03.

T1 sequence (P46095 whole entry): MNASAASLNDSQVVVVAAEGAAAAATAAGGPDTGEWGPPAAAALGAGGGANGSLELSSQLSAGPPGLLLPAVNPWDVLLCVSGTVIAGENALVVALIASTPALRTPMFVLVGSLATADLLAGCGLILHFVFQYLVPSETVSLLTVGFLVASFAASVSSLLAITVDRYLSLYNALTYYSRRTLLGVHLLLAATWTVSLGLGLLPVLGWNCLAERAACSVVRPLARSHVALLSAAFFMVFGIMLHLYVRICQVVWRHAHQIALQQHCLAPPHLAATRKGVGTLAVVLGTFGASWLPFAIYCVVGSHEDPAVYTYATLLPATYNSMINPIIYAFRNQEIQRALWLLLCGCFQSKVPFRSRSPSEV

| EC50 [nM] | Structure (SMILES) |
| --- | --- |
| 309 | Cc1cc2nc(N3CCC(Oc4ccc(OC(F)F)cc4F)CC3)c(NC(C)C)nc2cn1 [Example 38, 2-(4-(4-(difluoromethoxy)-2-fluorophenoxy)piperidin-1-yl)-N-isopropyl-7-methylpyrido[3,4-b]pyrazin-3-amine] |
| > 5000 | Cc1cc2nc(N3CCC(Oc4ccc(OC(F)F)cc4F)CC3)c(NC3CC3)nc2cn1 [Example 39, N-cyclopropyl-2-(4-(4-(difluoromethoxy)-2-fluorophenoxy)piperidin-1-yl)-7-methylpyrido[3,4-b]pyrazin-3-amine] |
| > 1000 | Cc1cc2nc(N3CCC(Oc4ccc(OC(F)F)cc4F)CC3)c(N[C@@H]3CCOC3)nc2cn1 [Example 40, (R)-2-(4-(4-(difluoromethoxy)-2-fluorophenoxy)piperidin-1-yl)-7-methyl-N-(tetrahydrofuran-3-yl)pyrido[3,4-b]pyrazin-3-amine] |
| > 1000 | Cc1cc2nc(N3CCC(Oc4ccc(OC(F)F)cc4F)CC3)c(N[C@H]3CCOC3)nc2cn1 [Example 41, (S)-2-(4-(4-(difluoromethoxy)-2-fluorophenoxy)piperidin-1-yl)-7-methyl-N-(tetrahydrofuran-3-yl)pyrido[3,4-b]pyrazin-3-amine] |
| 276 | COc1ccc(CN2CCN(c3nc4cc(C)ncc4nc3NC(C)C)CC2)c(F)c1 [Example 42, 2-(4-(2-fluoro-4-methoxybenzyl)piperazin-1-yl)-N-isopropyl-7-methylpyrido[3,4-b]pyrazin-3-amine] |
| > 1000 | COc1ccc(CN2CCN(c3nc4cc(C)ncc4nc3NC3CC3)CC2)c(F)c1 [Example 43, N-cyclopropyl-2-(4-(2-fluoro-4-methoxybenzyl)piperazin-1-yl)-7-methylpyrido[3,4-b]pyrazin-3-amine] |
| > 1000 | COc1ccc(CN2CCN(c3nc4cc(C)ncc4nc3N[C@@H]3CCOC3)CC2)c(F)c1 [Example 44, (R)-2-(4-(2-fluoro-4-methoxybenzyl)piperazin-1-yl)-7-methyl-N-(tetrahydrofuran-3-yl)pyrido[3,4-b]pyrazin-3-amine] |
| > 1000 | COc1ccc(CN2CCN(c3nc4cc(C)ncc4nc3N[C@H]3CCOC3)CC2)c(F)c1 [Example 45, (S)-2-(4-(2-fluoro-4-methoxybenzyl)piperazin-1-yl)-7-methyl-N-(tetrahydrofuran-3-yl)pyrido[3,4-b]pyrazin-3-amine] |
| > 1000 | Cc1cc2nc(N3CCN(Cc4ccc(OC(F)F)cc4F)CC3)c(NC(C)C)nc2cn1 [Example 46, 2-(4-(4-(difluoromethoxy)-2-fluorobenzyl)piperazin-1-yl)-N-isopropyl-7-methylpyrido[3,4-b]pyrazin-3-amine] |
| > 1000 | Cc1cc2nc(N3CCN(Cc4ccc(OC(F)F)cc4F)CC3)c(NC3CC3)nc2cn1 [Example 47, N-cyclopropyl-2-(4-(4-(difluoromethoxy)-2-fluorobenzyl)piperazin-1-yl)-7-methylpyrido[3,4-b]pyrazin-3-amine] |
| > 1000 | Cc1cc2nc(N3CCN(Cc4ccc(OC(F)F)cc4F)CC3)c(N[C@@H]3CCOC3)nc2cn1 [Example 48, (R)-2-(4-(4-(difluoromethoxy)-2-fluorobenzyl)piperazin-1-yl)-7-methyl-N-(tetrahydrofuran-3-yl)pyrido[3,4-b]pyrazin-3-amine] |
| > 1000 | Cc1cc2nc(N3CCN(Cc4ccc(OC(F)F)cc4F)CC3)c(N[C@H]3CCOC3)nc2cn1 [Example 49, (S)-2-(4-(4-(difluoromethoxy)-2-fluorobenzyl)piperazin-1-yl)-7-methyl-N-(tetrahydrofuran-3-yl)pyrido[3,4-b]pyrazin-3-amine] |
| 164 | Cc1cc2nc(N3CCN(Cc4ccc(F)cc4F)CC3)c(NC3COC3)nc2cn1 [Example 50, 2-(4-(2,4-difluorobenzyl)piperazin-1-yl)-7-methyl-N-(oxetan-3-yl)pyrido[3,4-b]pyrazin-3-amine] |

system: Haloperidol-Induced Catalepsy; assay: Haloperidol-Induced Catalepsy, In Vivo Rodent Parkinson's Disease Model; conditions: Rat, dose 1 mg/kg, sc
Excerpt: Haloperidol-Induced Catalepsy—In Vivo Rodent Parkinson's Disease Model
The motor symptoms of Parkinson's disease include akinesia, bradykinesia, rigidity, tremor and postural abnormalities and are associated with the loss of nigral dopaminergic cells and a decline in striatal dopamine levels. Administration of haloperidol to rodents leads to a transient parkinsonian-like state that is reversed by the administration of L-Dopa (Duty, S.; Jenner, P. Br. J. Pharmacol. (2011), 164, 1357-1391) and other drugs that have been clinically validated for the treatment of Parkinson's disease. Haloperidol antagonizes dopamine D2 and, to a lesser extent, D1 receptors in medium spiny neurons that comprise the indirect and direct pathways of the motor circuit respectively. The resultant block of striatal dopamine transmission results in abnormal downstream firing within the basal ganglia circuits that is manifest as symptoms of muscle rigidity and catalepsy. Catalepsy has been postulated to reflect the clinical features of Parkinson's disease, whereby patients experience an inability of to initiate movements.
Male Sprague-Dawley rats (Charles River, Calco, Italy) weighing 175-200 g are used. Alternatively, male C57Bl6 mice weighing 25-35 g were used. The cataleptic state was induced by the subcutaneous administration of the dopamine receptor antagonist haloperidol (0.3 mg/kg, sc), 90 min before testing the animals on the vertical grid test. […] The time span from placement of the paws until the first complete removal of one paw (descent latency) was measured maximally for 120 sec for rats. For mice, the front paws of a mouse was placed on a horizontal metal bar raised 2″ above a Plexiglas platform and time was recorded for up to 30 seconds per trial. […]
Catalepsy was measured 30 min, […], and/or […] after dosing the subjects a 1.0 mg/kg i.p. dose of haloperidol along with the GPR6 modulator test compound. Test compound plasma and brain levels were determined by collected tissue samples at the end of the experiment, which was either at the 120 or 240 min time point. […]

| Structure (SMILES) | % reversal at 90 min [%] |
| --- | --- |
| Cc1cc2nc(NC3CC3)c(N3CCN(Cc4ccc(F)cc4F)CC3)nc2cn1 [Example 7, N-cyclopropyl-3-(4-(2,4-difluorobenzyl)piperazin-1-yl)-7-methylpyrido[3,4-b]pyrazin-2-amine] | 33.5 |

same assay, conditions: Rat, dose 10 mg/kg, sc

| Structure (SMILES) | % reversal at 90 min [%] |
| --- | --- |
| Cc1cc2nc(NC3CC3)c(N3CCN(Cc4ccc(F)cc4F)CC3)nc2cn1 [Example 7, N-cyclopropyl-3-(4-(2,4-difluorobenzyl)piperazin-1-yl)-7-methylpyrido[3,4-b]pyrazin-2-amine] | 63.6 |

same assay, conditions: Rat, dose 30 mg/kg, sc

| Structure (SMILES) | % reversal at 90 min [%] |
| --- | --- |
| Cc1cc2nc(NC3CC3)c(N3CCN(Cc4ccc(F)cc4F)CC3)nc2cn1 [Example 7, N-cyclopropyl-3-(4-(2,4-difluorobenzyl)piperazin-1-yl)-7-methylpyrido[3,4-b]pyrazin-2-amine] | 42.8 |
